# Source: patent US12138293B2 (priority 2020, dated 2024)
# Where “and” joins values, the source holds several entries; their conditions need not be identical. Equal values may be shown once. Read-outs that look alike come from different tables or passages of the source. Residues, ends and D or L forms follow the SMILES beside them.
# Experiments:
# [1] = in vivo; conditions: rabbit
# [2] = test system: eye of Dutch Belted rabbits; conditions: rabbit, in vivo
# [3] = test system: nitrogen mustard (NM)-exposed cornea; set-up: species or system New Zealand white rabbits; conditions: rabbit, in vivo
# [4] = rabbit, in vivo
# [5] = test system: transepithelial PTK injury of rabbit corneas; set-up: species or system rabbits; conditions: in vivo
# [6] = test system: heptanol-induced corneal erosion (chemical burn injury) in rabbit eyes; conditions: in vivo
# [7] = rabbit, in vivo; remark: listed apart in the source
# [8] = type: physicochemical
structure (smiles),measurement,setting,value
"CC[C@H](C)[C@H](NC(=O)[C@H](CCC(=O)O)NC(=O)[C@H](CC(C)C)NC(=O)[C@H](CC(=O)O)NC(=O)[C@H](CC(=O)O)NC(=O)[C@@H]1CCCN1C(=O)[C@H](CCCNC(=N)N)NC(=O)[C@@H]1CCCN1C(=O)[C@H](CCCNC(=N)N)NC(=O)[C@H](CCCCN)NC(=O)[C@H](CCCCN)NC(=O)[C@H](Cc1c[nH]c2ccccc12)NC(=O)[C@@H]1CCCN1C(=O)[C@H](CCCCN)NC(=O)[C@H](CCCNC(=N)N)NC(=O)[C@H](CCCNC(=N)N)NC(=O)[C@H](CC(N)=O)NC(=O)[C@@H]1CCCN1C(=O)[C@H](Cc1ccccc1)NC(=O)[C@H](Cc1c[nH]c2ccccc12)NC(=O)[C@@H](NC(=O)[C@H](CCCCN)NC(=O)[C@@H]1CCCN1C(=O)[C@H](CCC(N)=O)NC(=O)[C@H](CCCNC(=N)N)NC(=O)CCCCCNC(=O)CCCC[C@@H]1SC[C@@H]2NC(=O)N[C@@H]21)[C@@H](C)CC)C(=O)O [aCT1, RQPKIWFPNRRKPWKK RPRPDDLEI] (HELM PEPTIDE1{[O=C1N[C@H]2[C@H](CS[C@H]2CCCCC(=O)[*:2])N1].[O=C(CCCCCN[*:1])[*:2]].R.Q.P.K.I.W.F.P.N.R.R.K.P.W.K.K.R.P.R.P.D.D.L.E.I}$$$$V2.0; N-terminus and C-terminus assumed)",Tmax,[1]; both,15 min
same,tissue level at time at 0.25 h,"[1]; both, topical or ocular, 0.1 umol/eye/dose, Retinal tissue concentration",1.91 to 24.2 ng/g
same,tissue level at time at 0.25 h,"[1]; female, topical or ocular, 0.1 umol/eye/dose, Cornea mean level",181 ± 50 ng/g
same,tissue level at time at 0.25 h,"[1]; female, topical or ocular, 0.1 umol/eye/dose, Palpebral conjunctiva highest mean concentration",2730 ± 697 ng/g
same,level at 0.25 h,"[1]; male, topical or ocular, 0.1 umol/eye/dose",3.26 ± 5.28 ng/mL
same,tissue level at time at 0.25 h,"[1]; male, topical or ocular, 0.1 umol/eye/dose, Aqueous humor mean level",115 ± 76.3 ng/g
same,tissue level at time at 0.25 h,"[1]; male, topical or ocular, 0.1 umol/eye/dose, Palpebral conjunctiva highest mean concentration",939 ± 228 ng/g
same,Contact of saline formulation with the ocular surface,[2],did not remain in contact with the ocular surface for a period of time sufficient
same,Corneal edema (corneal thickness),[3],limited corneal edema damage
same,Corneal fibroblasts/keratocytes,[3],protection of corneal fibroblasts/keratocytes
same,Expression of COX-2,[3],reduced
same,Formation of new blood vessels in the corneal stroma,[3],limited the formation of new blood vessels
same,Inflammatory cell infiltration in the corneal stroma (H&E),[3],significantly decreases inflammatory cell infiltration
same,MMP-9 expression in the stroma,[3],reduction in MMP-9 expression
same,VEGF expression,[3],decreased
same,Vitreous humor levels,[4],quantifiable levels
same,"Whole blood concentration, all other samples",[4],below the lower limit of quantitation (LLOQ)
same,Corneal healing (fluorescein staining),[5],accelerated corneal healing
same,Corneal healing measured by central corneal thickness,[6],accelerated corneal healing
same,Corneal healing measured by fluorescein staining,[6],accelerated corneal healing
same,Maximum tolerated dose (MTD),[7],no maximum tolerated dose (MTD) was identified
same,Microscopic findings in the eye tissues,[7],no microscopic findings
same,No observed adverse effect level (NOAEL),[7],1.0 μmol/eye
same,"Tolerability (cage-side or clinical observations, body weight, clinical pathology, organ weight, necropsy)",[7],well-tolerated and did not result in any adverse findings
same,Loss of Purity,[8]; pH 6.5,0.67% and 0.24% and 0.03% and 0.76% and 1.05%
same,Loss of Purity (%),[8]; pH 6.5,0.44% and 0.39% and 0.30% and 0.19% and 0.06%
same,Loss of Purity (%),[8]; pH 7,0.33%
same,Loss of Purity (%),[8]; pH 7.5,0.50%
